# Reference: ChEMBL document CHEMBL4308841, “Synthesis, in vitro antiproliferative activity, and kinase inhibitory effects of pyrazole-containing diarylureas and diarylamides” (Eur J Med Chem, 2018)
# Legend:
# [1] = test system: NCI/ADR-RES; experiment: Growth inhibition of human NCI/ADR-RES cells assessed as cell growth at 0.1 uM incubated for 48 hrs by sulforhodamine B assay relative to control; assay type: functional; details: read-out: Activity
# [2] = test system: K562; experiment: Growth inhibition of human K562 cells assessed as cell growth at 1 uM incubated for 48 hrs by sulforhodamine B assay relative to control; assay type: functional; details: K562, 48 h, read-out: Activity
# [3] = test system: Malme-3M; experiment: Growth inhibition of human MALME-3M cells assessed as cell growth at 0.1 uM incubated for 48 hrs by sulforhodamine B assay relative to control; assay type: functional; details: read-out: Activity
# [4] = test system: M14; experiment: Growth inhibition of human M14 cells incubated for 48 hrs by sulforhodamine B assay; assay type: functional, cell-based; details: M14, 48 h
# [5] = test system: DU-145; experiment: Growth inhibition of human DU145 cells assessed as cell growth at 0.1 uM incubated for 48 hrs by sulforhodamine B assay relative to control; assay type: functional; details: DU-145, 48 h, read-out: Activity
# [6] = test system: NCI-H226; experiment: Growth inhibition of human NCI-H226 cells assessed as cell growth at 0.01 uM incubated for 48 hrs by sulforhodamine B assay relative to control; assay type: functional; details: NCI-H226, 48 h, read-out: Activity
# [7] = test system: SK-MEL-28; experiment: Growth inhibition of human SK-MEL-28 cells assessed as cell growth at 100 uM incubated for 48 hrs by sulforhodamine B assay relative to control; assay type: functional; details: SK-MEL-28, 48 h, read-out: Activity
# [8] = test system: CAKI-1; experiment: Growth inhibition of human Caki1 cells assessed as cell growth at 1 uM incubated for 48 hrs by sulforhodamine B assay relative to control; assay type: functional; details: CAKI-1, 48 h, read-out: Activity
# [9] = test system: ACHN; experiment: Growth inhibition of human ACHN cells incubated for 48 hrs by sulforhodamine B assay; assay type: functional, cell-based
# [10] = test system: MCF7; experiment: Growth inhibition of human MCF7 cells assessed as cell growth at 0.1 uM incubated for 48 hrs by sulforhodamine B assay relative to control; assay type: functional; details: MCF7, 48 h, read-out: Activity
# [11] = test system: HOP-62; experiment: Growth inhibition of human HOP62 cells assessed as cell growth at 100 uM incubated for 48 hrs by sulforhodamine B assay relative to control; assay type: functional; details: HOP-62, 48 h, read-out: Activity
# [12] = test system: UACC-62; experiment: Growth inhibition of human UACC62 cells assessed as cell growth at 0.1 uM incubated for 48 hrs by sulforhodamine B assay relative to control; assay type: functional; details: UACC-62, 48 h, read-out: Activity
# [13] = test system: COLO 205; experiment: Growth inhibition of human COLO205 cells assessed as cell growth at 1 uM incubated for 48 hrs by sulforhodamine B assay relative to control; assay type: functional; details: COLO 205, 48 h, read-out: Activity
# [14] = test system: SF-539; experiment: Growth inhibition of human SF539 cells assessed as cell growth at 100 uM incubated for 48 hrs by sulforhodamine B assay relative to control; assay type: functional; details: SF-539, 48 h, read-out: Activity
# [15] = test system: K562; experiment: Growth inhibition of human K562 cells assessed as cell growth at 0.01 uM incubated for 48 hrs by sulforhodamine B assay relative to control; assay type: functional; details: K562, 48 h, read-out: Activity
# [16] = test system: UACC-257; experiment: Growth inhibition of human UACC257 cells assessed as cell growth at 0.1 uM incubated for 48 hrs by sulforhodamine B assay relative to control; assay type: functional; details: UACC-257, 48 h, read-out: Activity
# [17] = test system: HCT-116; experiment: Growth inhibition of human HCT116 cells incubated for 48 hrs by sulforhodamine B assay; assay type: functional, cell-based; details: HCT-116, 48 h
# [18] = test system: CAKI-1; experiment: Growth inhibition of human Caki1 cells assessed as cell growth at 0.1 uM incubated for 48 hrs by sulforhodamine B assay relative to control; assay type: functional; details: CAKI-1, 48 h, read-out: Activity
# [19] = test system: NCI-H522; experiment: Growth inhibition of human NCI-H522 cells assessed as cell growth at 0.01 uM incubated for 48 hrs by sulforhodamine B assay relative to control; assay type: functional; details: NCI-H522, 48 h, read-out: Activity
# [20] = test system: LOX IMVI; experiment: Growth inhibition of human LOXIMVI cells assessed as cell growth at 1 uM incubated for 48 hrs by sulforhodamine B assay relative to control; assay type: functional; details: read-out: Activity
# [21] = test system: LOX IMVI; experiment: Growth inhibition of human LOXIMVI cells incubated for 48 hrs by sulforhodamine B assay; assay type: functional
# [22] = test system: SK-OV-3; experiment: Growth inhibition of human SKOV3 cells assessed as cell growth at 0.1 uM incubated for 48 hrs by sulforhodamine B assay relative to control; assay type: functional; details: SK-OV-3, 48 h, read-out: Activity
# [23] = test system: MDA-MB-468; experiment: Growth inhibition of human MDA-MB-468 cells assessed as cell growth at 1 uM incubated for 48 hrs by sulforhodamine B assay relative to control; assay type: functional; details: MDA-MB-468, 48 h, read-out: Activity
# [24] = test system: 786-0; experiment: Growth inhibition of human 786-0 cells assessed as cell growth at 1 uM incubated for 48 hrs by sulforhodamine B assay relative to control; assay type: functional; details: 786-0, 48 h, read-out: Activity
# [25] = test system: NCI-H23; experiment: Growth inhibition of human NCI-H23 cells assessed as cell growth at 0.01 uM incubated for 48 hrs by sulforhodamine B assay relative to control; assay type: functional; details: NCI-H23, 48 h, read-out: Activity
# [26] = test system: 786-0; experiment: Growth inhibition of human 786-0 cells assessed as cell growth at 0.1 uM incubated for 48 hrs by sulforhodamine B assay relative to control; assay type: functional; details: 786-0, 48 h, read-out: Activity
# [27] = test system: U-251; experiment: Growth inhibition of human U251 cells incubated for 48 hrs by sulforhodamine B assay; assay type: functional, cell-based; details: U-251, 48 h
# [28] = test system: COLO 205; experiment: Growth inhibition of human COLO205 cells incubated for 48 hrs by sulforhodamine B assay; assay type: functional, cell-based; details: COLO 205, 48 h
# [29] = test system: OVCAR-8; experiment: Growth inhibition of human OVCAR8 cells assessed as cell growth at 0.1 uM incubated for 48 hrs by sulforhodamine B assay relative to control; assay type: functional; details: OVCAR-8, 48 h, read-out: Activity
# [30] = test system: MCF7; experiment: Growth inhibition of human MCF7 cells assessed as cell growth at 0.01 uM incubated for 48 hrs by sulforhodamine B assay relative to control; assay type: functional; details: MCF7, 48 h, read-out: Activity
# [31] = read-out: LC50 (the source's name)
# [32] = read-out: pLC50 (the source's name) (converted)
compound,measurement,setting,value
O=C(Nc1cccc(-n2cc(-c3ccncc3)c(-c3cc(O)cc(Cl)c3)n2)c1)c1ccc(N2CCOCC2)c(C(F)(F)F)c1,growth at 0.1 µM,[1],103%
same,growth at 1 µM,[2],30%
same,growth at 0.1 µM,[3],85%
same,GI50,[4]; read-out: GI50,0.774 µM
same,CC50,[4]; [31],54.5 µM
same,TGI,[4]; read-out: TGI,21.4 µM
same,GI50,[4]; read-out: pGI50 (converted),0.776 µM
same,CC50,[4]; [32],8.51 µM
same,TGI,[4]; read-out: pTGI (converted),2.75 µM
same,growth at 0.1 µM,[5],108%
same,growth at 0.01 µM,[6],98%
same,growth at 100 µM,[7],-22%
same,growth at 1 µM,[8],53%
same,GI50,[9]; read-out: GI50,1.54 µM
same,CC50,[9]; [31],> 100 µM
same,TGI,[9]; read-out: TGI,29.3 µM
same,GI50,[9]; read-out: pGI50 (converted),1.82 µM
same,CC50,[9]; [32],> 100 µM
same,TGI,[9]; read-out: pTGI (converted),29.5 µM
same,growth at 0.1 µM,[10],87%
same,growth at 100 µM,[11],-7%
same,growth at 0.1 µM,[12],91%
same,growth at 1 µM,[13],100%
same,growth at 100 µM,[14],-50%
same,growth at 0.01 µM,[15],113%
same,growth at 0.1 µM,[16],91%
same,IC50,[17],1.96 µM
same,GI50,[17]; read-out: GI50,1.96 µM
same,CC50,[17]; [31],> 100 µM
same,TGI,[17]; read-out: TGI,> 100 µM
same,GI50,[17]; read-out: pGI50 (converted),1.95 µM
same,CC50,[17]; [32],> 100 µM
same,TGI,[17]; read-out: pTGI (converted),> 100 µM
same,growth at 0.1 µM,[18],93%
same,growth at 0.01 µM,[19],50%
same,growth at 1 µM,[20],51%
same,GI50,[21]; read-out: GI50,1.03 µM
same,CC50,[21]; [31],> 100 µM
same,TGI,[21]; read-out: TGI,48.1 µM
same,GI50,[21]; read-out: pGI50 (converted),1.02 µM
same,CC50,[21]; [32],> 100 µM
same,TGI,[21]; read-out: pTGI (converted),4.57 µM
same,growth at 0.1 µM,[22],102%
same,growth at 1 µM,[23],75%
same,growth at 1 µM,[24],77%
same,growth at 0.01 µM,[25],105%
same,growth at 0.1 µM,[26],94%
same,IC50,[27],1.4 µM
same,GI50,[27]; read-out: GI50,1.43 µM
same,CC50,[27]; [31],44 µM
same,TGI,[27]; read-out: TGI,6.3 µM
same,GI50,[27]; read-out: pGI50 (converted),1.41 µM
same,CC50,[27]; [32],43.7 µM
same,TGI,[27]; read-out: pTGI (converted),6.31 µM
same,GI50,[28]; read-out: GI50,1.75 µM
same,CC50,[28]; [31],> 100 µM
same,TGI,[28]; read-out: TGI,64.5 µM
same,GI50,[28]; read-out: pGI50 (converted),17.4 µM
same,CC50,[28]; [32],> 100 µM
same,TGI,[28]; read-out: pTGI (converted),64.6 µM
same,growth at 0.1 µM,[29],101%
same,growth at 0.01 µM,[30],91%
